The record followed here is ChEMBL document CHEMBL4715869, “N-(Pyrimidin-2-yl)-1,2,3,4-tetrahydroisoquinolin-6-amine Derivatives as Selective Janus Kinase 2 Inhibitors for the Treatment of Myeloproliferative Neoplasms” (J Med Chem, 2020).

Assay [1] can be described thus: Selectivity index, ratio of IC50 for inhibition of recombinant human FLT3 D835Y mutant (564 to end residues) to IC50 for inhibition of recombinant human JAK2 (808 to end residues).
Assay [2] is described as follows: Selectivity index, ratio of IC50 for inhibition of recombinant human TYK2 (875 to end residues) to IC50 for inhibition of recombinant human JAK2 (808 to end residues).
The nature of assay [3]: Cytotoxicity against rat H9c2(2-1) cells assessed as reduction in cell viability incubated for 72 hrs by MTT assay. The class given is cell-based. The settings on record: H9c2, 72 h.
Assay [4] deals with Non-receptor tyrosine-protein kinase TYK2 (Homo sapiens, UniProt P29597). Briefly: Inhibition of recombinant human TYK2 (875 to end residues) using GGMEDIYFEFMGGKKK as substrate incubated for 40 mins in presence of [gamma33P]ATP by scintillation counting based radiometry assay.
In assay [5] the target is T1, Tyrosine-protein kinase JAK3 (Homo sapiens, UniProt P52333).
T1 sequence (P52333 whole entry): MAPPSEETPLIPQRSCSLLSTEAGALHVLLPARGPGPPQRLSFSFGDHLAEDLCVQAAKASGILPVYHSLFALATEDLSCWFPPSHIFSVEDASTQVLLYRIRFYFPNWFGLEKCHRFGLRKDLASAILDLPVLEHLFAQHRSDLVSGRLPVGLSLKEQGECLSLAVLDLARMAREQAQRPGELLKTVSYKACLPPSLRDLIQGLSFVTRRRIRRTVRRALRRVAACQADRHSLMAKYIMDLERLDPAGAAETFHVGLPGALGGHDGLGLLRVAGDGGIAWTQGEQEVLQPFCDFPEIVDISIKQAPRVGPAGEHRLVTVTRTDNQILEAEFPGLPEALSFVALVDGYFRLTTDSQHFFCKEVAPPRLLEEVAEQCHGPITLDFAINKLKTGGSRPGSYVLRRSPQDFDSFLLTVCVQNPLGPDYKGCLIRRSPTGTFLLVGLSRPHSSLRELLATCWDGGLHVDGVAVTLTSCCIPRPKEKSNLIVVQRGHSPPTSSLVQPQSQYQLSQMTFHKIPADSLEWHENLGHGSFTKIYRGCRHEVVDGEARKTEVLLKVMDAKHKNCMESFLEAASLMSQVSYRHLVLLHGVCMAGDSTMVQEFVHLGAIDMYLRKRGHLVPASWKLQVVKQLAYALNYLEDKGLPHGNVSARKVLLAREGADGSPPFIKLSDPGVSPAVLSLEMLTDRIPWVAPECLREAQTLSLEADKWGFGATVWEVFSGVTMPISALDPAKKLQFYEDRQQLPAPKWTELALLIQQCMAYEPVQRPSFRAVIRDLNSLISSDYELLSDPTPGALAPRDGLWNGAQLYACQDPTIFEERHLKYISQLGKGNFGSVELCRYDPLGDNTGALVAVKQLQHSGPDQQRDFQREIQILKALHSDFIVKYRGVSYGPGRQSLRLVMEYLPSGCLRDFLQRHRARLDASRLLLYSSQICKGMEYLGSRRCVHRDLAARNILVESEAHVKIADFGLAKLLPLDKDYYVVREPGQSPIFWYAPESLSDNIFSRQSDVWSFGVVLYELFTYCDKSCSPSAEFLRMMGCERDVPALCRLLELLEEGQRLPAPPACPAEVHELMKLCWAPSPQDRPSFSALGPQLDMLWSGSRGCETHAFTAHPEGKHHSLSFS
Briefly: Inhibition of recombinant human JAK3 (781 to end residues) using GGEEEEYFELVKKKK as substrate measured after 40 mins in presence of [gamm33P]ATP by scintillation counting method.

Assay [6] concerns the target Receptor-type tyrosine-protein kinase FLT3 (Homo sapiens, UniProt P36888, D835Y). As to the kind of experiment: Inhibition of recombinant human FLT3 D835Y mutant (564 to end residues) using EAIYAAPFAKKK as substrate at 40 mins in presence of [gamma-33ATP] by scintillation counting based radiometry assay.
The subject of a further assay is Vero. As to the kind of experiment: Cytotoxicity against African green monkey Vero cells assessed as reduction in cell viability incubated for 72 hrs by MTT assay. The class given is cell-based. The settings on record: Chlorocebus sabaeus.
Assay [7] has as its system Receptor-type tyrosine-protein kinase FLT3 (Homo sapiens), P36888 [UNDEFINED MUTATION]. Briefly: Inhibition of FLT3 ITD mutant in human MOLM13 cells assessed as residual activity at 100 nM relative to control. The class given is cell-based. The conditions noted are these: MOLM-13.
For assay [8], the target named is Tyrosine-protein kinase JAK2 (Homo sapiens, UniProt O60674). Briefly: Inhibition of recombinant human JAK2 (808 to end residues) KTFCGTPEYLAPEVRREPRILSEEEQEMFRDFDYIADWC as substrate measured after 40 mins in presence of [gamm33P]ATP by scintillation counting method.
A further assay deals with L02. Briefly: Cytotoxicity against human L02 cells assessed as reduction in cell viability incubated for 72 hrs by MTT assay. The class given is cell-based. The settings on record: L02, 72 h.
The species named for a further assay is Homo sapiens. Briefly: Selectivity index, ratio of IC50 for inhibition of FLT3 ITD mutant in human MOLM13 cells to IC50 for inhibition of JAK2 V617F mutant in human SET-2 cells. The class given is cell-based.
Assay [9] deals with Tyrosine-protein kinase JAK1 (Homo sapiens, UniProt P23458). Briefly: Inhibition of human JAK1 (866 to end residues) using GEEPLYWSFPAKKK as substrate after 40 mins by [gamma-33ATP] radiometric assay.
The nature of assay [10]: Selectivity index, ratio of IC50 for inhibition of recombinant human JAK3 (781 to end residues) to IC50 for inhibition of recombinant human JAK2 (808 to end residues).
A short description of assay [11]: Selectivity index, ratio of IC50 for inhibition of human JAK1 (866 to end residues) to IC50 for inhibition of recombinant human JAK2 (808 to end residues).
A short description of assay [12]: Inhibition of JAK2 V617F mutant in mouse BaF3 cells assessed as reduction in cell viability incubated for 72 hrs by MTT assay.
The next assay relates to BaF3. Briefly: Antitumor activity against mouse BAF3 cells harboring JAK2 V617F mutant implanted in Balb/c mouse assessed as decrease in liver weight at 60 mg/kg, po qd administered starting from day 4 to 20 and measured on day 25 relative to control. Details: scale not given: the % may be the effect or the level left. The conditions noted are these: time 21 day. The class given is functional.

In a further assay the test system is SET-2. As to the kind of experiment: Antitumor activity against human SET2 cells xenografted in NOD/SCID mouse assessed as tumor growth inhibition at 60 mg/kg, po qd administered for 16 days and measured every 2 days relative to control. The class given is functional. The settings on record: SET-2, po, 384 h, time 16 day, read-out: TGI.

Sequence of Non-receptor tyrosine-protein kinase TYK2 (P29597 whole entry): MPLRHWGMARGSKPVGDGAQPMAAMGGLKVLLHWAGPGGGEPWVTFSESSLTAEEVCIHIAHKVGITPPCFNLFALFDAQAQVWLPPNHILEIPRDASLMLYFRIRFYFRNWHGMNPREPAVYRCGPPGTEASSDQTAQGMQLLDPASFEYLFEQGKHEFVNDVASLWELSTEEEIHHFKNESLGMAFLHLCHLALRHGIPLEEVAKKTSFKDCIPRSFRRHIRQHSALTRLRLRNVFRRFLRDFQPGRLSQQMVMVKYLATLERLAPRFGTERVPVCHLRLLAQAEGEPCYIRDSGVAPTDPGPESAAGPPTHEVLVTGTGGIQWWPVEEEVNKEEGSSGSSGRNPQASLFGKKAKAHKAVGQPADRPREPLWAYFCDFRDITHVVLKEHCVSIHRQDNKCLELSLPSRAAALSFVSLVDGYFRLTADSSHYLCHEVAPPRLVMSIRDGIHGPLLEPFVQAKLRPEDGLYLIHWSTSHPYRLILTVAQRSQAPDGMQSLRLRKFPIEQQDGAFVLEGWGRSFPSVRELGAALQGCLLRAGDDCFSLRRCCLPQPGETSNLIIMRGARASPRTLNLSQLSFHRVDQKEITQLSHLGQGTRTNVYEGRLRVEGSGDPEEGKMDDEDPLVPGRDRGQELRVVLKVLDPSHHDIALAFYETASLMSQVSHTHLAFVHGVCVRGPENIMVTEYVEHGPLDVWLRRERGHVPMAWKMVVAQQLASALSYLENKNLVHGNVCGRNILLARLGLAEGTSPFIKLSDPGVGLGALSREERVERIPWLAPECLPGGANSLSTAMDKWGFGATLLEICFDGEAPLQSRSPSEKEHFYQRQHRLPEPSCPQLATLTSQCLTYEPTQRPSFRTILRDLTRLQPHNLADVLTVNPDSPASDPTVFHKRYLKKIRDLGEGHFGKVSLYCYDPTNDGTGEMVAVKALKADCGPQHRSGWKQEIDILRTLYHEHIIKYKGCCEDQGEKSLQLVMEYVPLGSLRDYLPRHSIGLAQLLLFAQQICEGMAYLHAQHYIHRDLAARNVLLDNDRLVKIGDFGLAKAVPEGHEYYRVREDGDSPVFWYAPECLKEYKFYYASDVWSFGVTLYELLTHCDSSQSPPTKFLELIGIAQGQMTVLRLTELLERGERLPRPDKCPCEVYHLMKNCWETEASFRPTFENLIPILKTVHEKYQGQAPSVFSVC
Sequence of Tyrosine-protein kinase JAK1 (P23458 whole entry): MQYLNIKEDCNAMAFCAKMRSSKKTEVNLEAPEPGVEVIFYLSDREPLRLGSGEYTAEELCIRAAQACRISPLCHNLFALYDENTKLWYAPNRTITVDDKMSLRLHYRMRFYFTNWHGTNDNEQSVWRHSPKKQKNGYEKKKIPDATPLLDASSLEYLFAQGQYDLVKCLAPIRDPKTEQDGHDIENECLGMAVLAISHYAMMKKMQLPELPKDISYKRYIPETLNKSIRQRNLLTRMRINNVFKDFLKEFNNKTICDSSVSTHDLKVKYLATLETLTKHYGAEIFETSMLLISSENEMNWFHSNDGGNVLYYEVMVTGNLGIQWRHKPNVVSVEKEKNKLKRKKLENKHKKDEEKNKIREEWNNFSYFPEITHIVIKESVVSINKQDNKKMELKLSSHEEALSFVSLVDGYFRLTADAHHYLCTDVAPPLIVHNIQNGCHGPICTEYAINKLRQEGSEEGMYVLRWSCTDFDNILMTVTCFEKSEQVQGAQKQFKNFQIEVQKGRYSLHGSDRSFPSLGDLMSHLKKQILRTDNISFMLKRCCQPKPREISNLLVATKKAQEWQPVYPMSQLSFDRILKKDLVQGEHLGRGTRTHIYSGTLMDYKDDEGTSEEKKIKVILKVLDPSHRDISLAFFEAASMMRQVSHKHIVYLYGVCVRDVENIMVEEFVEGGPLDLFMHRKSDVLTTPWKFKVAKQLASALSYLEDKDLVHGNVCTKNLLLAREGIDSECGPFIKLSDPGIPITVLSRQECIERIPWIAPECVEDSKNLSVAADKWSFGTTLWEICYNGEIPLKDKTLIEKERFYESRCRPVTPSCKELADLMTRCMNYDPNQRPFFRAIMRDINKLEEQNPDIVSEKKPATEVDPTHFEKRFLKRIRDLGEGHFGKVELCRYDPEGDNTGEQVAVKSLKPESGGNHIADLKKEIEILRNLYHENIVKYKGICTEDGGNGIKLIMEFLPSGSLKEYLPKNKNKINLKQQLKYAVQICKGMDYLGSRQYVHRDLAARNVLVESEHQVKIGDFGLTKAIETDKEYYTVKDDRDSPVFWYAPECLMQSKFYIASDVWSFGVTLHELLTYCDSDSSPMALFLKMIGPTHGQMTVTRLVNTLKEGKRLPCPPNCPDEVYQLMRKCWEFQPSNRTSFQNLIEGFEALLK
Sequence of Tyrosine-protein kinase JAK2 (O60674 whole entry): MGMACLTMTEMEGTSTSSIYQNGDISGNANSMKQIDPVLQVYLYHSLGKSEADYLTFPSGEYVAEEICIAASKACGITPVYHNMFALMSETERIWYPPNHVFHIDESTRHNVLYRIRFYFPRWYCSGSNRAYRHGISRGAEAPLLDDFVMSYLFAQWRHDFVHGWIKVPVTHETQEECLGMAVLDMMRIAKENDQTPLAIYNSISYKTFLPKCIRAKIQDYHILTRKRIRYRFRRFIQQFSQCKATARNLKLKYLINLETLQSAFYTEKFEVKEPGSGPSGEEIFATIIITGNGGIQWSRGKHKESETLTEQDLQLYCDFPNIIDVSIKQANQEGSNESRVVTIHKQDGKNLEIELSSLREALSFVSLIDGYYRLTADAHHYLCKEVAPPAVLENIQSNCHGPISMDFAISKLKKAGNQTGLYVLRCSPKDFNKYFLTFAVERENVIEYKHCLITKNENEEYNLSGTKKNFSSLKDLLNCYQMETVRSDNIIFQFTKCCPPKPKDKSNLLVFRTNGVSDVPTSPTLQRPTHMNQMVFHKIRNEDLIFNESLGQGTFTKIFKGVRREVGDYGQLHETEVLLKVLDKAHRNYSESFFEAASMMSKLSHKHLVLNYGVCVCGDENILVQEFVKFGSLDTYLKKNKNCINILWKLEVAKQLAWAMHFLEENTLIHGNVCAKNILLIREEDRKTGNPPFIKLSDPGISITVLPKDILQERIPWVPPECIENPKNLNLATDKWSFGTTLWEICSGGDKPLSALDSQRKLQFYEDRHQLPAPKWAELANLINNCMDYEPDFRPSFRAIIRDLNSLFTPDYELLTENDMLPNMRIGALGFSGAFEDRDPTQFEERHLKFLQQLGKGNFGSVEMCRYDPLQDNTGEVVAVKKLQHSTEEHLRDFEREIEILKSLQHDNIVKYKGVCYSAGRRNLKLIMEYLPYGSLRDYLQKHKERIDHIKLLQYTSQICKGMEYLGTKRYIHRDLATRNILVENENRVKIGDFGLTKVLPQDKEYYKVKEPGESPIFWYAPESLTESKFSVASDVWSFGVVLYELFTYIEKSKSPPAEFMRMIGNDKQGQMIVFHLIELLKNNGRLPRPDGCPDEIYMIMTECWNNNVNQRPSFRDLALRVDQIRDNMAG

Turning to `COC(=O)/C=C/CN1CCc2cc(Nc3ncc(C)c(-c4cnn(C(C)C)c4)n3)ccc2C1`, the Ratio IC50 came to 11.5 in assay [1]; 44 in assay [2]; 36.3 in the assay filed under Homo sapiens; 38.5 in assay [10]; 13 in assay [11]. The IC50 in [3] stood at 2890 nM; in assay [4], 88 nM; in [5], 77 nM; in [6] it was 23 nM; in the assay with Vero, 2330 nM; in [8] it was 2 nM. For the same molecule, the figures for the IC50 (with L02; in assay [9]) were 1530 nM and 26 nM, respectively. In addition, the Activity in assay [7] stood at 53%.
As to `Cc1cnc(Nc2ccc(N3CCC(N(C)CCO)CC3)c(F)c2)nc1-c1cnn(C(C)C)c1`, the Activity in assay [7] came out at 5%. Moreover, the IC50 in assay [12] was 145 nM.
On to `N#CC[C@H](C1CCCC1)n1cc(-c2ncnc3[nH]ccc23)cn1` [RUXOLITINIB], for which the Activity in the assay with BaF3 was 80.4%. The inhibition in vivo at 60 mg/kg with SET-2 came to 52.8%.
Turning to `Cc1ccc(C(=O)/C=C/C(=O)N2CCc3cc(Nc4ncc(C)c(-c5cnn(C(C)C)c5)n4)ccc3C2)cc1`, the Ratio IC50 in assay [1] worked out at 10; in assay [2], 33.3; in the assay filed under Homo sapiens, 51.6; in assay [10], 16.6; in assay [11], 20. For the same molecule, the IC50 was found to be 1430 nM in [3]; 100 nM in [4]; 50 nM in [5]; 30 nM in assay [6]; 1050 nM in the assay with Vero; 3 nM in assay [8]. The values for the IC50 (in the assay with L02; in assay [9]) were 2660 nM and 60 nM, respectively. Besides, in [7], the Activity came to 55%.
With `Cc1ccc(C(=O)/C=C/C(=O)N2CCc3ccc(Nc4ncc(C)c(-c5cnn(C(C)C)c5)n4)cc3C2)cc1`, the IC50 was determined as 1690 nM in assay [3]; 30 nM in assay [4]; 28 nM in assay [5]; 18 nM in [6]; 2470 nM with Vero; 2030 nM with L02. Besides, in [7], the Activity turned out to be 59%.
